“And” between values parts separate entries of the source, which are not always exact repeats. Equal values may be shown once.
How the values were obtained:
Assay type in all cases: biochemical
hLPCAT1 [1] = target: T1, hLPCAT1 (Homo sapiens, UniProt Q8NF37); experiment: lyso-PAFAT (acetyltransferase) activity assay, PAF product by LC-MS/MS; details: 0, 0.2, 0.6, 2, 6 and 20 μM of each compound in triplicate; LC-MS/MS; read-out: IC50, product PAF, enzyme hLPCAT1
T1 construct: expressed in transfected cells
T1 sequence (Q8NF37 1-534): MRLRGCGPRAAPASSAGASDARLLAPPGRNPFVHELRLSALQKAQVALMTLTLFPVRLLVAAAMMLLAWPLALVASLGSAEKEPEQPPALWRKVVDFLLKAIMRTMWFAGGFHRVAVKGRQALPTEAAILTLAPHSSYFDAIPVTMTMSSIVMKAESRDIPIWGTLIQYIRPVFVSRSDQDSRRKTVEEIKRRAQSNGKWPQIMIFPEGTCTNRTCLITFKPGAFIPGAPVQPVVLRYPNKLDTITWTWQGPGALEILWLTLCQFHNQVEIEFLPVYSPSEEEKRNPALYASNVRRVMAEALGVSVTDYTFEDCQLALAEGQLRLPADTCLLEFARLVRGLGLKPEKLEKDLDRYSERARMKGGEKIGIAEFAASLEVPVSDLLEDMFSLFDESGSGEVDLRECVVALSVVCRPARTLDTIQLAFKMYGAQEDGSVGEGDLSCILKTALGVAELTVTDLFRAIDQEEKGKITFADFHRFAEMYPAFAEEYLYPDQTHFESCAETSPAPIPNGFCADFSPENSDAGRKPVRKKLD
Method: (§1) Microsomal protein fractions (0.5 μg) supplemented with the indicated compound concentrations were added to the reaction mixture containing 100 mM Tris-HCl (pH 7.4), 1 μM CaCl2, 0.015% Tween-20, and two substrates. For acetyltransferase activity, the substrates were 1 mM acetyl-CoA and 5 μM d4-lyso-PAF; for the acyltransferase activity of LPCAT1 or LPCAT2, the substrates were, respectively, palmitoyl-CoA and d31-16:0 LPC or arachidonoyl-CoA and d4-lyso-PAF (all 5 μM). Each lysophospholipid contained fatty acid at the sn-1 position. After incubation at 37°C for 5 min, the reactions were stopped by adding 300 μl methanol containing 17:0 LPC or 14:0/14:0 PC as an internal standard. Deuterium-labeled products were analyzed by LC-MS/MS (Waters, Milford, MA and Thermo Scientific, Waltham, MA). […]
(§2) Steps 2 to 5 screening: 96-well plate assay
(§3) Acetyltransferase and acyltransferase assays were developed in 96-well plates. The microsomal hLPCAT2, obtained from mcPAF-stimulated CHO-S-PAFR cells was used in steps 1, 2, and 5. The microsomal hLPCAT1 obtained from unstimulated CHO-S cells was used in steps 3 to 5. Each well of the 96-well plates contained 30 µl of 15 µg/ml protein, 600 nl of 2 mM compound, 30 µl buffer C, and two substrates (Fig. 1B and C).
(§4) Substrate concentrations were as follows: acetyl-CoA, 250 or 1000 µM acetyl-CoA; […]
(§5) arachidonoyl-CoA, 5 µM; palmitoyl-CoA, 5 µM; d4-lyso-PAF, 5 µM; and d31-LPC, 5 µM.
(§6) For step 5, compound concentrations were 0, 0.167, 0.67, 2, 6.7, and 20 µM. The deuterium-labeled products were measured by LC-MS/MS. Percentage inhibition (steps 2 to 4) or IC50 (step 5) was used as the hit criterion. […]
(§7) Step 7 screening: species-specific differences
(§8) To evaluate the effects on the activity of mouse or human LPCAT1 and LPCAT2, each microsomal fraction was obtained using CHO-S-PAFR cells with or without mcPAF (200 nM) stimulation for 5 min. Acetyltransferase and acyltransferase assays were performed with 20 µM of each compound. Percentage inhibition was calculated in each

hLPCAT1 [2] = target: T1, hLPCAT1; experiment: acyltransferase activity assay, DPPC product by LC-MS/MS; details: 0, 0.2, 0.6, 2, 6 and 20 μM of each compound in triplicate; LC-MS/MS; read-out: IC50, product DPPC, enzyme hLPCAT1
Method: as §1, §2, §3, §4, §5, §6, §7, §8

hLPCAT2 [3] = target: T2, hLPCAT2 (Homo sapiens, UniProt Q7L5N7); experiment: lyso-PAFAT (acetyltransferase) activity assay, PAF product by LC-MS/MS; details: 0, 0.2, 0.6, 2, 6 and 20 μM of each compound in triplicate; LC-MS/MS; read-out: IC50, product PAF, enzyme hLPCAT2
T2 construct: expressed in transfected cells; host or cells: CHO-S-PAFR cells (microsomal fraction), with or without mcPAF stimulation
T2 sequence (Q7L5N7 1-544): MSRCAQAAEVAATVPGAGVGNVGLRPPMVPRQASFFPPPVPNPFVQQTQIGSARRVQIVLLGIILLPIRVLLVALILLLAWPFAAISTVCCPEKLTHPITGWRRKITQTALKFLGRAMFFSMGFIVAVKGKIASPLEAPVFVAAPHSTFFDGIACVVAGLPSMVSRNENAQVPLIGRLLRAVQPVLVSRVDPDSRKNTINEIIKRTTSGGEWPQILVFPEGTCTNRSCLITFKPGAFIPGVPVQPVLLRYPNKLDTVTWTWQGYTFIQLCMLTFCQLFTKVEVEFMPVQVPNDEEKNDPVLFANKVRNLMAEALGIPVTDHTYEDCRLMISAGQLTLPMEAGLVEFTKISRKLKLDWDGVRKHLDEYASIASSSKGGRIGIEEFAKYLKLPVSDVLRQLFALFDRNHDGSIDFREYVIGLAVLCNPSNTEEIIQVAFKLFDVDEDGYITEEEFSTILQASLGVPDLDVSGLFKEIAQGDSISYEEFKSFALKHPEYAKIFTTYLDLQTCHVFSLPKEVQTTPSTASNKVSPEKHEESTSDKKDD
Method: as §1, §2, §3, §4, §5
For step 5, compound concentrations were 0, 0.167, 0.67, 2, 6.7, and 20 µM. The deuterium-labeled products were measured by LC-MS/MS. Percentage inhibition (steps 2 to 4) or IC50 (step 5) was used as the hit criterion.
Step 6 screening: BSA assay
The acetyltransferase assay was performed with 20 µM of each compound and microsomal hLPCAT2 from step 1. The assay mixture contained 0.4% BSA and two substrates for lyso-PAFAT activity: 1 mM acetyl-CoA and 5 µM d4-lyso-PAF. Percentage inhibition values were determined.
as §7, §8

hLPCAT2 [4] = target: T2, hLPCAT2; experiment: acyltransferase activity assay, 16:0/20:4 alkyl-PC product by LC-MS/MS; details: 0, 0.2, 0.6, 2, 6 and 20 μM of each compound in triplicate; LC-MS/MS; read-out: IC50, product Alkyl-PC (16:0/20:4 alkyl-PC), enzyme hLPCAT2
Method: as §1, §2, §3, §4, §5, §6, §7, §8

CCN1C(=O)C=CC1=O [N-ethylmaleimide (NEM), N-ethylmaleimide, reference compound]
IC50 (hLPCAT1 [1]): 1720 µM | IC50 (hLPCAT1 [2]): 1850 µM | IC50 (hLPCAT2 [3]): 106 µM | IC50 (hLPCAT2 [4]): 69.6 µM

COc1ccc(N2C(=O)C(Cl)=C(Oc3ccccc3OC)C2=O)cc1 [TSI-05]
IC50 (hLPCAT1 [1]): > 20 µM | IC50 (hLPCAT1 [2]): > 20 µM | IC50 (hLPCAT2 [3]): > 20 µM | IC50 (hLPCAT2 [4]): 7.58 µM

COC(=O)c1ccc(N2C(=O)C(Cl)=C(Nc3ccc(S(N)(=O)=O)cc3)C2=O)cc1 [TSI-08]
IC50 (hLPCAT1 [1]): > 20 µM | IC50 (hLPCAT1 [2]): > 20 µM | IC50 (hLPCAT2 [3]): > 20 µM | IC50 (hLPCAT2 [4]): > 20 µM

COc1ccc(Cl)cc1N1C(=O)C(Cl)=C(Nc2ccccc2O)C1=O [TSI-04]
IC50 (hLPCAT1 [1]): 7.79 µM | IC50 (hLPCAT1 [2]): > 20 µM | IC50 (hLPCAT2 [3]): > 10 µM and 16.3 µM | IC50 (hLPCAT2 [4]): > 20 µM

COc1ccc(Cl)cc1N1C(=O)C(Cl)=C(Cl)C1=O [TSI-03]
IC50 (hLPCAT1 [1]): 9.38 µM | IC50 (hLPCAT1 [2]): > 20 µM | IC50 (hLPCAT2 [3]): > 10 µM and 12.1 µM | IC50 (hLPCAT2 [4]): 17.1 µM

COC(=O)c1ccc(N2C(=O)C(Cl)=C(Cl)C2=O)cc1 [TSI-09]
IC50 (hLPCAT1 [1]): 10.1 µM | IC50 (hLPCAT1 [2]): > 20 µM | IC50 (hLPCAT2 [3]): 3.5 µM | IC50 (hLPCAT2 [4]): 11.6 µM

CC(C)OC(=O)c1ccc(N2C(=O)C(Cl)=C(N3CCOCC3)C2=O)cc1 [TSI-06]
IC50 (hLPCAT1 [1]): > 20 µM | IC50 (hLPCAT1 [2]): > 20 µM | IC50 (hLPCAT2 [3]): > 20 µM | IC50 (hLPCAT2 [4]): > 20 µM

— paper PMC4076079, “Selective inhibitors of a PAF biosynthetic enzyme lysophosphatidylcholine acyltransferase 2” (Journal of Lipid Research, 2014)
